Source: PubChem BioAssay AID260 (DTP/NCI, 2004)
Several values for one entry are separate records, joined by “and”; a condition that tells them apart may be missing. Equal values may be shown once. Toxic doses and inconclusive results are not listed.

Test system: CD2F1 mice, intracerebral L1210 leukemia, survival T/C
Test: NCI In Vivo Anticancer Drug Screen. Data for tumor model L1210 Leukemia (intracerebral) in CD2F1 (CDF1) mice
Conditions: higher = longer survival
Method: The antitumor activity of compounds was measured in mice bearing transplantable tumors. Survival or tumor size were measured and the results are expressed as the measurement made in the treated group (T) divided by the measurement made in the vehicle treated control group (C). The tumor model used in this assay is L1210 Leukemia (intracerebral) in CD2F1 (CDF1) mice

[1] = endpoint: median survival time, dose: 16.0 mg/kg/injection, schedule: Q01DX005 (ip), vehicle: saline
[2] = endpoint: median survival time, dose: 32.0 mg/kg/injection, schedule: Q01DX005 (ip), vehicle: saline
[3] = endpoint: median survival time, dose: 64.0 mg/kg/injection, schedule: Q01DX005 (ip), vehicle: saline

Which T/C (endpoint: mean survival time, dose: 64.0 mg/kg/injection, schedule: Q01DX009 (ip), vehicle: water) does the source give for `C[C@@H](CN1CC(=O)NC(=O)C1)N1CC(=O)NC(=O)C1` here?
The T/C was 164 % of control.

And the T/C (endpoint: mean survival time, dose: 256.0 mg/kg/injection, schedule: Q01DX009 (ip), vehicle: water)?
Its T/C is 111 % of control.

And the T/C (endpoint: mean survival time, dose: 512.0 mg/kg/injection, schedule: Q01DX009 (ip), vehicle: water)?
Its T/C is 100 % of control.

Which T/C (endpoint: median survival time, dose: 1000.0 mg/kg/injection, schedule: Q01DX005 (ip), vehicle: saline) does the source give for `CS(C)=O` here?
The T/C was 101 % of control and 106 % of control.

And the T/C (endpoint: median survival time, dose: 1.5 grams/kg/injection, schedule: Q01DX009 (ip), vehicle: saline)?
The T/C was 104 % of control.

And the T/C (endpoint: median survival time, dose: 2000.0 mg/kg/injection, schedule: Q01DX005 (ip), vehicle: saline)?
The T/C was 98 % of control and 102 % of control.

What about the T/C (endpoint: median survival time, dose: 3.0 grams/kg/injection, schedule: Q01DX009 (ip), vehicle: saline) of the same molecule?
The T/C was 102 % of control.

What about the T/C (endpoint: median survival time, dose: 4000.0 mg/kg/injection, schedule: Q01DX005 (ip), vehicle: saline) of the same molecule?
Its T/C is 98 % of control and 102 % of control.

And the T/C (endpoint: median survival time, dose: 6.0 grams/kg/injection, schedule: Q01DX009 (ip), vehicle: saline)?
The T/C was 104 % of control and 107 % of control.

And the T/C (endpoint: median survival time, dose: 8000.0 mg/kg/injection, schedule: Q01DX005 (ip), vehicle: saline)?
The T/C was 118 % of control and 107 % of control.

For `CC(C)=CCC1=C(O)c2ccccc2C(=O)C1=O`, which T/C (endpoint: median survival time, dose: 32.0 mg/kg/injection, schedule: Q01DX005 (ip), vehicle: Klucel (hydroxypropylcellulose) (HPC)) is on record?
The T/C was 96 % of control and 100 % of control.

What about the T/C (endpoint: median survival time, dose: 64.0 mg/kg/injection, schedule: Q01DX005 (ip), vehicle: Klucel (hydroxypropylcellulose) (HPC)) of the same molecule?
The T/C was 97 % of control and 102 % of control.

What about the T/C (endpoint: median survival time, dose: 128.0 mg/kg/injection, schedule: Q01DX005 (ip), vehicle: Klucel (hydroxypropylcellulose) (HPC)) of the same molecule?
Its T/C is 92 % of control and 93 % of control.

What about the T/C (endpoint: median survival time, dose: 256.0 mg/kg/injection, schedule: Q01DX005 (ip), vehicle: Klucel (hydroxypropylcellulose) (HPC)) of the same molecule?
Its T/C is 96 % of control and 105 % of control.

With `CN(N=O)C(=O)Nc1c[nH]c(=O)[nH]c1=O` as the molecule, how does the T/C (endpoint: median survival time, dose: 8.0 mg/kg/injection, schedule: Q01DX005 (ip), vehicle: saline with Tween-80) read?
The T/C was 100 % of control.

What about the T/C (endpoint: median survival time, dose: 16.0 mg/kg/injection, schedule: Q01DX005 (ip), vehicle: saline with Tween-80) of the same molecule?
Its T/C is 103 % of control.

And the T/C (endpoint: median survival time, dose: 32.0 mg/kg/injection, schedule: Q01DX005 (ip), vehicle: saline with Tween-80)?
The T/C was 100 % of control.

What about the T/C (endpoint: median survival time, dose: 64.0 mg/kg/injection, schedule: Q01DX005 (ip), vehicle: saline with Tween-80) of the same molecule?
Its T/C is 110 % of control.

What about the T/C (endpoint: median survival time, dose: 128.0 mg/kg/injection, schedule: Q01DX005 (ip), vehicle: saline with Tween-80) of the same molecule?
The T/C was 119 % of control.

Which results are given for `N#[N+]c1nc[nH]c1C(N)=O`?
T/C (endpoint: median survival time, dose: 2.0 mg/kg/injection, schedule: Q01DX005 (ip), vehicle: saline): 112 % of control; T/C (endpoint: median survival time, dose: 4.0 mg/kg/injection, schedule: Q01DX005 (ip), vehicle: saline): 105 % of control; T/C (endpoint: median survival time, dose: 8.0 mg/kg/injection, schedule: Q01DX005 (ip), vehicle: saline): 107 % of control; T/C [1]: 105 % of control; T/C [2]: 105 % of control; T/C [3]: 101 % of control

Which results are given for `O=C1C(=O)c2ccccc2C(O)=C1CC=C(Cl)Cl`?
T/C (endpoint: median survival time, dose: 10.0 mg/kg/injection, schedule: Q01DX005 (ip), vehicle: Klucel (hydroxypropylcellulose) (HPC)): 89 % of control and 96 % of control; T/C (endpoint: median survival time, dose: 20.0 mg/kg/injection, schedule: Q01DX005 (ip), vehicle: Klucel (hydroxypropylcellulose) (HPC)): 95 % of control and 96 % of control; T/C (endpoint: median survival time, dose: 40.0 mg/kg/injection, schedule: Q01DX005 (ip), vehicle: Klucel (hydroxypropylcellulose) (HPC)): 101 % of control and 109 % of control; T/C (endpoint: median survival time, dose: 80.0 mg/kg/injection, schedule: Q01DX005 (ip), vehicle: Klucel (hydroxypropylcellulose) (HPC)): 109 % of control and 117 % of control

Which T/C [1] does the source give for `CN(Cc1cnc2nc(N)nc(N)c2n1)c1c(Cl)cc(C(=O)NC(CCC(=O)O)C(=O)O)cc1Cl` (stereo not given) here?
The T/C was 101 % of control and 111 % of control.

What about the T/C [2] of the same molecule?
Its T/C is 111 % of control.

What about the T/C [3] of the same molecule?
The T/C was 119 % of control and 120 % of control.

Which results are given for `O=C1C=CN(C2OC(CO)C(O)C2O)C(=O)C1` (stereo not given)?
T/C (endpoint: mean survival time, dose: 33.0 mg/kg/injection, schedule: Q01DX009 (ip), vehicle: saline): 150 % of control; T/C (endpoint: median survival time, dose: 100.0 mg/kg/injection, schedule: Q01DX009 (ip), vehicle: saline): 116 % of control; T/C (endpoint: median survival time, dose: 200.0 mg/kg/injection, schedule: Q01DX009 (ip), vehicle: saline): 105 % of control; T/C (endpoint: median survival time, dose: 400.0 mg/kg/injection, schedule: Q01DX009 (ip), vehicle: saline): 107 % of control

For `CC[n+]1c(-c2ccccc2)c2cc(N)ccc2c2ccc(N)cc21`, which T/C (endpoint: median survival time, dose: 12.0 mg/kg/injection, schedule: Q01DX005 (ip), vehicle: saline) is on record?
Its T/C is 100 % of control.

And the T/C (endpoint: median survival time, dose: 24.0 mg/kg/injection, schedule: Q01DX005 (ip), vehicle: saline)?
The T/C was 104 % of control.

Which results are given for `CC1(C)N=C(N)N=C(N)N1c1ccc(OCc2ccc(C(=O)Nc3cccc(S(=O)(=O)F)c3)cc2)c(Cl)c1`?
T/C (endpoint: mean survival time, dose: 50.0 mg/kg/injection, schedule: Q04DX003 (ip), vehicle: saline): 111 % of control; T/C (endpoint: mean survival time, dose: 100.0 mg/kg/injection, schedule: Q04DX003 (ip), vehicle: saline): 111 % of control
